From ChEMBL document CHEMBL1201862, “PubChem BioAssay data set” (2004)
Calls of active or inactive are those of the source.

What was measured:
[1] = target: Heat shock protein HSP 90-alpha (Homo sapiens, UniProt P07900); format: functional, organism-based
[2] = viability of uninfected HEp-2 cells – cell-based, HTS, cytotoxicity control for RSV inhibitor project, dose response (AID 2410); format: functional; conditions: human respiratory syncytial virus
cells [3] = experiment: cells
[4] = target: Eukaryotic translation initiation factor 4E (Mus musculus, UniProt P63073); experiment: blockers of eIF4G binding by eIF4E – biochemical, TR-FRET, dose response (AID 855); format: functional;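 note: potency for disrupting eIF4E binding to eIF4GI seen as loss of FRET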
[5] = HPDE-C7 pancreatic duct cell viability loss – fluorescence, HTS (AID 430); format: functional, cell-based; conditions: Homo sapiens
[6] = viability loss of HPDE-C7K cells – cell-based, fluorescence, HTS, primary screen (AID 431); format: functional; conditions: Homo sapiens
Cytochrome P450 2C19 = Cytochrome P450 2C19 (Homo sapiens, UniProt P33261); experiment: Cytochrome panel assay with activity outcomes. Panel member name: p450-cyp2c19 Compounds with AC50 equal or less than 10 uM are considered active; format: functional; conditions: read-out: AC50
[7] = blockade of melanocortin 4 receptor signaling – cell-based, plate reader, cherry pick, counter-screen for LGR2 antagonist project, dose response (AID 743444); format: functional;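 note: transfected HEK 293 cells stimulated with alpha-MSH peptide; potency of inhibitors of the alpha-MSH evoked signal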
[8] = blockers of bursicon-stimulated LGR2 cAMP reporter – cell-based, HEK293, CRE-luciferase reporter, cherry pick, set 2, dose response (AID 743343); format: functional;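 note: transfected cells were stimulated with diluted bursicon conditioned medium after compound addition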
[9] = target: Induced myeloid leukemia cell differentiation protein Mcl-1 (Homo sapiens, UniProt Q07820); format: functional
[10] = viability loss in THP-1 monocytes – THP-1 cells, cytotoxicity control for Vif-APOBEC3G degradation inhibitor project, dose response (AID 1117359); format: functional; conditions: THP-1
[11] = target: T1, Mannose-6-phosphate isomerase (Homo sapiens, UniProt P34949); experiment: MPI inhibition at elevated mannose 6-phosphate – biochemical, fluorescence intensity, high mannose 6-phosphate, primary screen (AID 1220)
T1 sequence (P34949 whole entry): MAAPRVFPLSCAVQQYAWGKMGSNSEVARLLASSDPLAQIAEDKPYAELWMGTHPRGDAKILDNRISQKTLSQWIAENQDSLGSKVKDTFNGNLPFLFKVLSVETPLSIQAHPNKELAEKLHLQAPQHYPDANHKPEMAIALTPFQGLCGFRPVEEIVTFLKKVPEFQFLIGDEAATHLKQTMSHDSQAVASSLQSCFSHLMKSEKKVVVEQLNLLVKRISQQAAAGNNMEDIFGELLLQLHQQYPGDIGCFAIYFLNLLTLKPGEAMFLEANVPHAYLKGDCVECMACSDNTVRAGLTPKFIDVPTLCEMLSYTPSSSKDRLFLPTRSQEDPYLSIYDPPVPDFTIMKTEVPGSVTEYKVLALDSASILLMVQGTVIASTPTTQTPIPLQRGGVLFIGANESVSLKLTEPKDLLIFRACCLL

[12] = target: FAD-linked sulfhydryl oxidase ALR (Homo sapiens, UniProt P55789); experiment: ALR-catalysed DTT oxidation blockers – biochemical, H2O2 detection, luminescence, cherry-pick, dose response (AID 493248)
[13] = Trypanosoma cruzi growth suppression in host cells – NIH3T3 host cells, beta-gal luminescence, confirmation (AID 2044); format: functional, cell-based;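 note: intracellular parasites grown in NIH/3T3 mouse fibroblasts as host cells; luminescent beta-galactosidase reporter signal from transgenic T. cruzi replicating inside host cells; inhibitors lower the luminescence signal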
[14] = alpha-synuclein stem-loop translation blockers – luminescence, H4 neuroglioblastoma cells, dose confirmation, confirmation (AID 2454); format: functional, cell-based;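 note: H4 neuroglioblastoma cells carrying an alpha-synuclein 5'UTR luciferase reporter; potency for inhibition of the luciferase signal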
[15] = Luminescence Cell-Based Dose Response HTS to Identify Inhibitors of 5'UTR Stem-Loop Driven Prion Protein mRNA Translation in H4 Neuroglioblastoma Cells. [Related pubchem assays: 1827 (Project Summary), 1813 (Primary HTS)]; format: functional
[16] = luciferase reporter signal reduction – luminescence, H4-C neuroglioblastoma cells, dose response (AID 2458); format: functional, cell-based;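 note: H4 neuroglioblastoma cells stably carrying a luciferase reporter gene fusion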
[17] = DRD fibroblast viability loss – cell-based, non-viral oncogenic, luminescence, dose response (AID 1934); format: functional; conditions: Homo sapiens
BJ [18] = experiment: BJ-TERT fibroblast viability loss – cell-based, RAS-independent, luminescence, dose response (AID 1933); format: functional; conditions: Homo sapiens
BJ [19] = experiment: cells; format: functional, cell-based; conditions: Homo sapiens
[20] = NIH3T3 cell viability loss – ATP luminescence, mouse fibroblasts, counter-screen, dose response (AID 2010); format: functional, cell-based;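 note: cells exposed to compound for about 90 hours before reading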
[21] = luciferase reporter signal suppression in cells – H4 neuroglioma cells, luminescence, dose response (AID 1990); format: functional, cell-based
BJ [22] = experiment: BJ-TERT-LT-ST fibroblast viability loss – cell-based, RAS-independent, luminescence, dose response (AID 1935); format: functional; conditions: Homo sapiens;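 note: BJ fibroblasts immortalized with TERT plus LT and ST oncogenes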
cells [23] = format: functional, cell-based
[24] = alpha-synuclein stem-loop luciferase translation blockers – H4 neuroglioma cells, luminescence, confirmation (AID 1988); format: functional, cell-based
[25] = target: T2, Polyadenylate-binding protein 1 (Homo sapiens, UniProt P11940); experiment: MLLE binding blockers, Cy5 peptide tracer – biochemical, fluorescence polarization, Cy5-PAM2 peptide, secondary, miRNA deadenylation inhibitor project, dose response (AID 602260); format: functional; conditions: read-out: IC50_Mean
[26] = target: T2, Polyadenylate-binding protein 1; experiment: MLLE domain peptide-binding blockers, IC50 – biochemical, fluorescence polarization, FITC-PAM2 peptide, dose response (AID 602259); format: functional; conditions: read-out: IC50_Mean

T2 sequence (P11940 whole entry, the tested form may be a part): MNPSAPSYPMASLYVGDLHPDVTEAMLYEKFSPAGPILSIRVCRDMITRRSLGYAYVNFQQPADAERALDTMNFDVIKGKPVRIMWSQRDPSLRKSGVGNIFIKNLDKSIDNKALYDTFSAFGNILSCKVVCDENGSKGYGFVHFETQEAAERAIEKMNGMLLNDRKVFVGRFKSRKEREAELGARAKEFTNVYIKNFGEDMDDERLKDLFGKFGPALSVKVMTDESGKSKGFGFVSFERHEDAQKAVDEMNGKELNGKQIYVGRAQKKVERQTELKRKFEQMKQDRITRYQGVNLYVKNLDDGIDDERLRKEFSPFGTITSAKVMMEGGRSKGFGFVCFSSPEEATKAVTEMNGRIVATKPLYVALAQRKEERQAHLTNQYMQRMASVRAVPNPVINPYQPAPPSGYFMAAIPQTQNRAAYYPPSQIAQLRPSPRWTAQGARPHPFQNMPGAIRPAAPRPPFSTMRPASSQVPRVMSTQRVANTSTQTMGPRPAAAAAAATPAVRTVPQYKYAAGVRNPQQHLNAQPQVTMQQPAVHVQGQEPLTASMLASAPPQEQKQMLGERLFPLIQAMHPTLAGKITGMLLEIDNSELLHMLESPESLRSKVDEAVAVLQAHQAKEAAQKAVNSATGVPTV
Chain of Induced myeloid leukemia cell differentiation protein Mcl-1 (Q07820 whole entry): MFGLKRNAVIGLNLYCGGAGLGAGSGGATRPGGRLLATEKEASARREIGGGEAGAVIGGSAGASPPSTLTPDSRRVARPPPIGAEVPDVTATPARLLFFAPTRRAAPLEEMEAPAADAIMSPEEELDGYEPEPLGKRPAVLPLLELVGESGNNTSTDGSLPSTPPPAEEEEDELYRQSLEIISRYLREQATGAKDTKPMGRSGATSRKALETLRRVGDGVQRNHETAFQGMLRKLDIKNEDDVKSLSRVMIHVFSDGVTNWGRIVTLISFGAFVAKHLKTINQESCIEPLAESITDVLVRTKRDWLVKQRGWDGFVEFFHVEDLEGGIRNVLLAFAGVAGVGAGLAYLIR
Chain of FAD-linked sulfhydryl oxidase ALR (P55789 whole entry): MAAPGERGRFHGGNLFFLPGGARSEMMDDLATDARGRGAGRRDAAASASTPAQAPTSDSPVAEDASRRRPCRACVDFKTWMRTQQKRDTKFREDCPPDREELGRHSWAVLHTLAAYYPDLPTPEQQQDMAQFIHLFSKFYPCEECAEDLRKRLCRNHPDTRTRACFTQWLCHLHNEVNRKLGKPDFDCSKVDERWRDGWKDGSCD
Chain of Eukaryotic translation initiation factor 4E (P63073 whole entry): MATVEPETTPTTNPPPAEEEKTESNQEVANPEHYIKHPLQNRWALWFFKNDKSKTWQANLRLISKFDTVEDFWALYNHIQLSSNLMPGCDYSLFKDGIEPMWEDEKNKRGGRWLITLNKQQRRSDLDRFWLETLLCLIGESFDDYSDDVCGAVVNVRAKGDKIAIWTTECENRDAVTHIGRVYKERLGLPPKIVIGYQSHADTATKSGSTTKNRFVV
Chain of Cytochrome P450 2C19 (P33261 whole entry): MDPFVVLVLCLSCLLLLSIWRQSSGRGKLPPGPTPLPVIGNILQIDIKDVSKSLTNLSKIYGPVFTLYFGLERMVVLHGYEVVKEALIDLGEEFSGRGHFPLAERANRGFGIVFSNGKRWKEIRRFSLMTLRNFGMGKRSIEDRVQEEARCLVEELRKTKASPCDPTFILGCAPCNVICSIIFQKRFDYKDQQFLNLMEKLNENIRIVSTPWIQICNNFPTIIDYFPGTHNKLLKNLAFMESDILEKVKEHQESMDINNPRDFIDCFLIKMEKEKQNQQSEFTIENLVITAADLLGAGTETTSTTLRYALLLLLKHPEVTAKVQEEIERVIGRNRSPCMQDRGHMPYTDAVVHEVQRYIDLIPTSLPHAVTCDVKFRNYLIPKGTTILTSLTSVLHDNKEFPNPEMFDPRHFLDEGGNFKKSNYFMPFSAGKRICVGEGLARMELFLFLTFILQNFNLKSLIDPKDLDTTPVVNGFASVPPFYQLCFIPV

CCOC(=O)C1=C(N)N2C(=O)C(C)SC2=C(C(=O)OC)C1c1ccccc1OC (configuration not stated)
AC50 [1]: 0.982 µM (active)

O=C(CNc1cccc(C(F)(F)F)c1)N/N=C/c1cn(-c2ccccc2)nc1-c1ccccc1
CC50 [2]: > 50 µM (active)
IC50 (cells [3]): 19.8 µM (active)

CC1CCc2nn(CC(=O)N3CCCCCC3)cc2C1 (configuration not stated)
IC50 [4]: > 64 µM (inactive)

CCCc1ccc(Oc2c(C)n[nH]c2-c2ccc(O)c(C)c2O)cc1
EC50 [5]: 4.88 µM (active)
EC50 [6]: 4.42 µM (active)

COc1ccccc1/C=C/C(=O)NCC(=O)N/N=C(/C)c1ccc(Cl)cc1
IC50 (cells [3]): 25.4 µM (active)

CSc1ccc(NC(=O)Nc2cc(C)ccn2)cc1
AC50 (Cytochrome P450 2C19): 3.98 µM (inconclusive)
AC50 [7]: 9.27 µM (active)
AC50 [8]: 3.7 µM (active)

COCCCNC(=O)c1ccc(Cn2c(=O)c3ccccc3n(Cc3ccc(C)cc3)c2=O)cc1
IC50 (cells [3]): 2.98 µM (active)

O=C(/C=C/c1cccs1)N1CCN(c2ccc(O)cc2)CC1
IC50 [9]: 5.63 µM (active)
CC50 [10]: > 40 µM (active)

COc1ccc(N(CC(=O)NC2CCCCC2)C(=O)c2ccc(C)s2)c(OC)c1
CC50 [2]: 43.8 µM (active)
IC50 (cells [3]): 10.9 µM (active)

O=C(N/N=C/c1ccc(N2CCOCC2)o1)c1cccc([N+](=O)[O-])c1
IC50 [11]: > 50 µM (not active)

CCN1CCN(C(=O)C(C)Nc2cc(Cl)c(OC)cc2OC)CC1 (configuration not stated)
IC50 [11]: > 50 µM (not active)

COc1ccc(OC)c(Nc2c3c(nc4ccccc24)CCC3)c1
AC50 [12]: 16.2 µM (active)
EC50 [13]: 3.15 µM (active)
EC50 [14]: 1.18 µM (active)
EC50 [15]: 0.355 µM (active)
EC50 [16]: 0.716 µM (active)
EC50 [17]: 12.4 µM (active)
EC50 (BJ [18]): 0.463 µM (active)
EC50 (BJ [19]): 15 µM (inconclusive)
EC50 [20]: 0.432 µM (active)
EC50 [21]: 3.29 µM (active)
EC50 (BJ [22]): 0.284 µM (inconclusive)
EC50 (cells [23]): 0.804 µM (active)
EC50 [24]: < 0.1 µM (active)

CC(=O)NNC(=O)CN1C(=O)/C(=C/c2ccccc2)SC1=S
IC50 [25]: > 66 µM (inactive)
IC50 [26]: > 66 µM (inactive)
